Data: publication PMC10597491 (PLOS ONE, 2023)
Bridge positions count the residues as written; N and C are the ends. Ends that are not written are not given here.

Tests used:
Assay type in all cases: cell-based
[1] = system: rested human CD8+ T-cells; experiment: IL-7Rα (CD127) internalization assay
Method: In previous studies, the decline of IL-7Rα on the surface of IL-7-treated CD8+ cells was reported to proceed with approximately linear kinetics, reaching ~80% disappearance of receptor over 6 hours at 37°C [49]. […] Surface IL-7R was pre-loaded with saturating concentrations of the agonists on ice and shifted to 37°C to allow internalization, then shifted back to ice to stop internalization. […] A parallel assay with all incubations held on ice for the duration of the time course was also run.
Fig 8 Test compounds induce decrease in cell surface IL-7Rα. […] Following timed incubations, the samples were stained, fixed, and analyzed by flow cytometry; and data was collected as median fluorescence intensity (MFI), as detailed in Methods. […] The primary flow data (MFI) is shown in S3 Fig.
CD8+ cells isolated by negative selection from PBMCs with Stem Cell Technology Easy Sep CD8+ kit, or obtained freshly prepared from Stanford Blood Center, were rested overnight in RPMI 1640 containing Pen/Strep, L-Glutamine and 20% FBS; then resuspended to 7.0 x10^6 cells/mL. […] To determine levels of cell surface IL-7Rα, analysis was performed by flow cytometry to determine median fluorescence intensity (MFI) of cells at each condition. […]

human naive CD4+ T-cells = experiment: pSTAT5 ELISA in isolated naive CD4+ T-cells; settings: for EC50: rested naive CD4+ T-cells, 15 min exposure, pSTAT5 ELISA
Method: (§1) We first assessed induction kinetics over a time course of compound exposure. Saturating concentrations of each of the compounds, previously determined to elicit maximum response of pSTAT5 signaling, were applied to the cells and pSTAT5 levels monitored for up to 2 hours. The resulting time-response profiles served to compare the kinetics of signal induction for the different compounds, and to determine Tmax for correct time of exposure in subsequent dose response determinations for each compound. In these studies, IL-7-induced pSTAT5 accumulation rose rapidly to a maximum by 15 to 30 minutes, then declined slowly for the remainder of the time course.
(§2) Naive CD4+ and CD8+ T-cells, were separately isolated by negative selection from PBMCs, and rested overnight prior to compound exposure.
(§3) For preparation of lymphocyte subsets, naïve CD4+ T-cells were isolated via two-stage negative selection with EasySep™ Human Naïve CD4+ T-Cell Isolation Kit II (Stemcell Technologies Cat# 17555); and CD8+ T-cells were isolated by negative selection from PBMCs with Stem Cell Technology Easy Sep CD8+ kit, or obtained freshly prepared from Stanford Blood Center. Rested naïve CD4+ T-cells or CD8+ T-cells were prepared by overnight incubation at 37°C, 5% CO2 in CTS™ OpTmizer™ T-Cell Expansion SFM (ThermoFisher Scientific Cat# A1048501).
(§4) Cells were deprived of growth factors by overnight incubation at 5×10^5 cells/mL in starvation medium (RPMI 1640 + 4.5 g/L glucose + 0.2% FBS + 2 mM L-glutamine + 1 mM NaPyr + 10 mM HEPES + 0.5x penicillin-streptomycin with no cytokine supplement) in T75 flasks. For assays, cells were plated in 96-well V-bottom plates at 2×10^5 cells/well. […] Following incubation, cell extracts were prepared by adding a mixture of 10x Cell Lysis Buffer (Cell Signaling Technology Cat# 9803) and 100x HALT Phosphatase and Protease Inhibitor Cocktail (Thermo Fisher Cat# 78442) directly to the wells. The plates were agitated at 25°C for 5 min to prepare cell extracts for immediate use or to be stored at -80°C until assay. […]

human naive CD8+ T-cells = experiment: pSTAT5 ELISA in isolated naive CD8+ T-cells; settings: for EC50: rested naive CD8+ T-cells, 15 min exposure, pSTAT5 ELISA
Method: as §1, §2, §3, §4

EC50 (human naive CD4+ T-cells) | EC50 (human naive CD8+ T-cells) | Substance | rate of surface decline of IL-7Rα ([1]; 1 μM, 37°C) | agonist efficacy, CD4+ (human naive CD4+ T-cells; dose response at 15 min) | agonist efficacy, CD8+ (human naive CD8+ T-cells; dose response at 15 min) | loss of IL-7Rα surface density ([1]; 6 hours at 37°C, 10 nM IL-7)
1.3 nM | 0.35 nM | Ac-GWGIPWCTLDPGSLQCAWLGKHGGGGSGGVVCQDWEGVELCWQGG (disulfide 7-16, 32-41) [MDK1472] | tracked very closely with that induced by IL-7 | full agonists | full agonists | –
0.0025 nM | 0.0028 nM | IL-7: human IL-7 cytokine (Peprotech) | – | – | – | 60%
